Source: paper PMC7714403 (JCI Insight, 2020)
Read-outs that look alike come from different tables or passages of the source.

Key:
Test in all cases: KiNativ, MOLM13 live cells
Assay type in all cases: cell-based
CDK7 = CDK7 (Homo sapiens, UniProt P50613); conditions: MOLM-13; 100 nM, 2 hours; Lys2; read-out: Inhibition vs DMSO
Experimental: (§1) Samples were analyzed by KiNativ in situ kinase profiling by ActivX Biosciences.

CaMK2g = CaMK2g (Homo sapiens, UniProt Q13555); conditions: MOLM-13; 100 nM, 2 hours; Lys1; read-out: Inhibition vs DMSO
CaMK2g, sequence (Q13555 whole entry): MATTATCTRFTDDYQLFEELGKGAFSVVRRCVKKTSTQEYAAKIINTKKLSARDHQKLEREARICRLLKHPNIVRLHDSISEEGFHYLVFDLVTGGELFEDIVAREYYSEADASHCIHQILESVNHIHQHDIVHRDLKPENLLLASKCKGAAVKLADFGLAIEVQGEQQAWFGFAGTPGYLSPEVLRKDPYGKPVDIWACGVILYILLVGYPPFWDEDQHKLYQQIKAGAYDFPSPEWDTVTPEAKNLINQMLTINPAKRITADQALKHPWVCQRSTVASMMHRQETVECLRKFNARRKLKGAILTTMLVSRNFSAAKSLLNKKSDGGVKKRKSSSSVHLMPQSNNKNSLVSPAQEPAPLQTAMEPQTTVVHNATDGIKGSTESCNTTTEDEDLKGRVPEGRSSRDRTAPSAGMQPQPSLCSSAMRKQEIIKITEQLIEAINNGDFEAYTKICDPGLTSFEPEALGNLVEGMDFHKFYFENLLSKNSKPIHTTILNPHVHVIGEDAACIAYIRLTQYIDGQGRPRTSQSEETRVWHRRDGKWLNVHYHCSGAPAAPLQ
Experimental: as §1

ILK = target: T1, ILK (Homo sapiens, UniProt Q13418); conditions: MOLM-13, 2 h, 100 nM
T1 sequence (Q13418 1-452): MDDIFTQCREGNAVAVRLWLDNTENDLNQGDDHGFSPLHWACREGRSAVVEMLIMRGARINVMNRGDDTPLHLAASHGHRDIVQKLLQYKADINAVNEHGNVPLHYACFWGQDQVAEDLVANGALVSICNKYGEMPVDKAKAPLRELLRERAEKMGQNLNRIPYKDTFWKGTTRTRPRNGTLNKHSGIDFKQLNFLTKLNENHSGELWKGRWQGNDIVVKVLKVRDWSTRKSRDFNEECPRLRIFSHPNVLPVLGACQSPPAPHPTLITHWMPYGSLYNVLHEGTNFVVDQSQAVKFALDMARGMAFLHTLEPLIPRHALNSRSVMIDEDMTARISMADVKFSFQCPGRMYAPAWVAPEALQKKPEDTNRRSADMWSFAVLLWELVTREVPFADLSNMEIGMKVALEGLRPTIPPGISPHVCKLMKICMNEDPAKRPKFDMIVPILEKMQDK
Experimental: as §1

IRE1 = IRE1 (Homo sapiens, UniProt O75460); conditions: MOLM-13; 100 nM, 2 hours; Lys2; read-out: Inhibition vs DMSO
Experimental: as §1

JAK1 domain2 = target: T2, JAK1 domain2 (Homo sapiens, UniProt P23458); conditions: 100 nM, 2 hours
T2 construct: JAK1 domain2
T2 sequence (P23458 whole entry, the tested form may be a part): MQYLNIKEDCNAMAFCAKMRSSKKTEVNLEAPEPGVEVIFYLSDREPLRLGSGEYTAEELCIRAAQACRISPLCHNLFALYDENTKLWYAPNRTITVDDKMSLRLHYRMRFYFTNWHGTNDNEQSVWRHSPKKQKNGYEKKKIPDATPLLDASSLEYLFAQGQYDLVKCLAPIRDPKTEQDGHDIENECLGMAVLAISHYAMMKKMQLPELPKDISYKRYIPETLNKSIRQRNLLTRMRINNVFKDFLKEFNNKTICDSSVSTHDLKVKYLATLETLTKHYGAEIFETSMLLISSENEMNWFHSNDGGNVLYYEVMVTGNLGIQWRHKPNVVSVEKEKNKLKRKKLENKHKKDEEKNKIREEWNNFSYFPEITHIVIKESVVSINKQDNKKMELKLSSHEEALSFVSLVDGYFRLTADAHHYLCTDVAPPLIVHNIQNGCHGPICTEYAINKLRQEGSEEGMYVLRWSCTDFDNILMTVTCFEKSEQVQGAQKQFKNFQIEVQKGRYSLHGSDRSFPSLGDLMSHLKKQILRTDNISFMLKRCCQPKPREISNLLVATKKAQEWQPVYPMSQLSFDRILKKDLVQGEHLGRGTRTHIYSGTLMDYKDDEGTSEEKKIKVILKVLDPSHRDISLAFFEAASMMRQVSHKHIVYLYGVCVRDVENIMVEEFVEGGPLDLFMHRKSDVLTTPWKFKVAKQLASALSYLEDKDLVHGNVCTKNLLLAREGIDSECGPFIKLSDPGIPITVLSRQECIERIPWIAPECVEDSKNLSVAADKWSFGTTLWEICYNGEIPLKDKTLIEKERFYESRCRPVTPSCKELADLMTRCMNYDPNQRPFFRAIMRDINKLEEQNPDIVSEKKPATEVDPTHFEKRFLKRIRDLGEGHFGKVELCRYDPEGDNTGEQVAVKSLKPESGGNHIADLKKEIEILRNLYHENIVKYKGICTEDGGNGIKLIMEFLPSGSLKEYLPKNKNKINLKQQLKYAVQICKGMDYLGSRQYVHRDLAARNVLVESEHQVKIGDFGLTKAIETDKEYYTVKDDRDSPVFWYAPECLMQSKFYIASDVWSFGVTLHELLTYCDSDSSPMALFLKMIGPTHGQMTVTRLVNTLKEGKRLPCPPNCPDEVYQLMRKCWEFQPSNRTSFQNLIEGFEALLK
Experimental: as §1

KSR1 = KSR1 (Homo sapiens, UniProt Q8IVT5); conditions: MOLM-13; 100 nM, 2 hours; Activation Loop; read-out: Inhibition vs DMSO
Experimental: as §1

MAP2K5 = MAP2K5 (Homo sapiens, UniProt Q13163); conditions: MOLM-13; 100 nM, 2 hours; Lys2; read-out: Inhibition vs DMSO
Experimental: as §1

PAK2 = PAK2 (Homo sapiens, UniProt Q13177); conditions: MOLM-13, 2 h, 100 nM
PAK2, sequence (Q13177 whole entry): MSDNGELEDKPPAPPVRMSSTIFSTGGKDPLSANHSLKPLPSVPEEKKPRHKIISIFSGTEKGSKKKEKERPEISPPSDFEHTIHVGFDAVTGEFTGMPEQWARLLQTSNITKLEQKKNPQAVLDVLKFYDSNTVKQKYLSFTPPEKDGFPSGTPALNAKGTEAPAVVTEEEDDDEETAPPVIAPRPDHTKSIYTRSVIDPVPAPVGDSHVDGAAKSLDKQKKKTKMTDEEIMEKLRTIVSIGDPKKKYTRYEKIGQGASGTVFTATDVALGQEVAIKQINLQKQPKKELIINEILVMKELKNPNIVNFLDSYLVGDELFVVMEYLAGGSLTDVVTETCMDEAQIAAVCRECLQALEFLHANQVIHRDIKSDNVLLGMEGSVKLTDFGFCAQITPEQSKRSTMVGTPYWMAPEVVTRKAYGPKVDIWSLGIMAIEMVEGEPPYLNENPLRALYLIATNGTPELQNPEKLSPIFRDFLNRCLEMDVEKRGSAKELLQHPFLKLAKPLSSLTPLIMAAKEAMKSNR
Experimental: as §1

PCTAIRE2 = PCTAIRE2 (Homo sapiens, UniProt Q00537); conditions: MOLM-13; 100 nM, 2 hours; Lys2; read-out: Inhibition vs DMSO
Experimental: as §1

PIK3CD = PIK3CD (Homo sapiens, UniProt O00329); conditions: MOLM-13; 100 nM, 2 hours; ATP; read-out: Inhibition vs DMSO
Experimental: as §1

PKR = PKR (Homo sapiens, UniProt P19525); conditions: 100 nM, 2 hours
PKR, sequence (P19525 whole entry): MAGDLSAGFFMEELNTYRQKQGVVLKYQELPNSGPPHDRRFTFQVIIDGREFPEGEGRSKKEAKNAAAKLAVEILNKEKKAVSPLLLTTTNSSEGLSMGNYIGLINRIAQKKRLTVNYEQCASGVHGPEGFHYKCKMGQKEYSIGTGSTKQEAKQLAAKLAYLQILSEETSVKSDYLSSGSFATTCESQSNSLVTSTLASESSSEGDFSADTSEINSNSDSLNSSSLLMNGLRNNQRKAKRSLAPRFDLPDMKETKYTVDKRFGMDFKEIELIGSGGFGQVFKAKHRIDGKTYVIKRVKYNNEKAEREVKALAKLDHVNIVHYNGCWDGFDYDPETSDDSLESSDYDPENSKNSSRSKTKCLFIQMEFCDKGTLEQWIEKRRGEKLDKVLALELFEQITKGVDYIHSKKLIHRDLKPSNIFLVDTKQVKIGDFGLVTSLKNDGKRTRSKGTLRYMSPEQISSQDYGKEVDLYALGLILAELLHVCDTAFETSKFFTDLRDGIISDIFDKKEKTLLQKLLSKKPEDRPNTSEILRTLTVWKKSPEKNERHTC
Experimental: as §1

PRPK = PRPK (Homo sapiens, UniProt Q96S44); conditions: MOLM-13; 100 nM, 2 hours; ATP Loop; read-out: Inhibition vs DMSO
Experimental: as §1

RIPK3 = RIPK3 (Homo sapiens, UniProt Q9Y572); conditions: MOLM-13; 100 nM, 2 hours; Lys2; read-out: Inhibition vs DMSO
RIPK3, sequence (Q9Y572 whole entry): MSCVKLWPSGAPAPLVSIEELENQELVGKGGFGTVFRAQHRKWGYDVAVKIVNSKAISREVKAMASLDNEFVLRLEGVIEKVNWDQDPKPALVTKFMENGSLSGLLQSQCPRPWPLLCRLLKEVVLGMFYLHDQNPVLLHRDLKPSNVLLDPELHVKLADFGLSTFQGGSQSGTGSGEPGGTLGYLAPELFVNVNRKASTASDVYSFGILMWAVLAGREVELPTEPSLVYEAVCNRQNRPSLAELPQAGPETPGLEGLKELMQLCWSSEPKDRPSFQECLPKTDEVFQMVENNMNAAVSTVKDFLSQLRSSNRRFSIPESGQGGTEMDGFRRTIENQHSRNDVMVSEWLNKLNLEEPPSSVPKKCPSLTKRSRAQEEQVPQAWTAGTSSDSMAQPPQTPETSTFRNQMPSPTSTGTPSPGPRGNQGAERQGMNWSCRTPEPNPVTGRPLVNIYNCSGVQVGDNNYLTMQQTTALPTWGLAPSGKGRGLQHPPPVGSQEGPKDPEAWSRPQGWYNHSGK
Experimental: as §1

SGK3 = SGK3 (Homo sapiens, UniProt Q96BR1); conditions: MOLM-13; 100 nM, 2 hours; Lys1; read-out: Inhibition vs DMSO
Experimental: as §1

TAO2 = TAO2 (Homo sapiens, UniProt Q9UL54); conditions: MOLM-13; 100 nM, 2 hours; Lys2; read-out: Inhibition vs DMSO
TAO2, sequence (Q9UL54 whole entry): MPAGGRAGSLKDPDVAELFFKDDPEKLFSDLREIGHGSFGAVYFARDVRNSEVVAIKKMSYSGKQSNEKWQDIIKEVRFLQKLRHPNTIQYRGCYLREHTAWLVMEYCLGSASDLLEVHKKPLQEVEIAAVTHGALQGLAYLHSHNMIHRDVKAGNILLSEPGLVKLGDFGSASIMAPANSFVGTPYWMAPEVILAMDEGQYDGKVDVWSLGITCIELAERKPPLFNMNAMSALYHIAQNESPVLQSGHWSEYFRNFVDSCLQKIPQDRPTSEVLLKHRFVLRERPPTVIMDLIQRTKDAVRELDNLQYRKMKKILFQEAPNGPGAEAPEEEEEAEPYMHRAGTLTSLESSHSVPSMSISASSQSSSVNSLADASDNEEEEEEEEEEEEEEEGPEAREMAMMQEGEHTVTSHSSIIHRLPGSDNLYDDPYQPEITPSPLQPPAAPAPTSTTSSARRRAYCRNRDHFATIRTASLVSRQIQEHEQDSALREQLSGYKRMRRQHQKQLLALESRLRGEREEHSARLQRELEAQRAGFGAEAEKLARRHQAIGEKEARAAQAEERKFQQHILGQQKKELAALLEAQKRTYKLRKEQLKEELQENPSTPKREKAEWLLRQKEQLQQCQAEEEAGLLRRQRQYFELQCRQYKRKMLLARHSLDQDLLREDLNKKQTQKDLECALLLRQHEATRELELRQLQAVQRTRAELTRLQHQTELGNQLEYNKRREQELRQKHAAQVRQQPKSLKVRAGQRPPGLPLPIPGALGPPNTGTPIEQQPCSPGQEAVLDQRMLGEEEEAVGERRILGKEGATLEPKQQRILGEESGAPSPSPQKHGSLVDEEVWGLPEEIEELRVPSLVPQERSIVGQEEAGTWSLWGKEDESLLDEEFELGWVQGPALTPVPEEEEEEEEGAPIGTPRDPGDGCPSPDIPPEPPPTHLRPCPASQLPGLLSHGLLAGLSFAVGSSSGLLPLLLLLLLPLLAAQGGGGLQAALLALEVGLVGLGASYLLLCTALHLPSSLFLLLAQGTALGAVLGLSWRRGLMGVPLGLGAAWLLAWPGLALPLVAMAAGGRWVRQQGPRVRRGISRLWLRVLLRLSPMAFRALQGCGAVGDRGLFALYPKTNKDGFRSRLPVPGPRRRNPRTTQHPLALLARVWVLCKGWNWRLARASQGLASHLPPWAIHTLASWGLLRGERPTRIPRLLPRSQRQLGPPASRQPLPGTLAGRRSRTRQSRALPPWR
Experimental: as §1

TYK2 domain2 = target: T3, TYK2 domain2 (Homo sapiens, UniProt P29597); conditions: 100 nM, 2 hours; Activation Loop
T3 construct: TYK2 domain2
Experimental: as §1

ULK1 = target: T4, ULK1 (Homo sapiens, UniProt O75385); conditions: 100 nM, 2 hours; Lys2
T4 sequence (O75385 1-1050): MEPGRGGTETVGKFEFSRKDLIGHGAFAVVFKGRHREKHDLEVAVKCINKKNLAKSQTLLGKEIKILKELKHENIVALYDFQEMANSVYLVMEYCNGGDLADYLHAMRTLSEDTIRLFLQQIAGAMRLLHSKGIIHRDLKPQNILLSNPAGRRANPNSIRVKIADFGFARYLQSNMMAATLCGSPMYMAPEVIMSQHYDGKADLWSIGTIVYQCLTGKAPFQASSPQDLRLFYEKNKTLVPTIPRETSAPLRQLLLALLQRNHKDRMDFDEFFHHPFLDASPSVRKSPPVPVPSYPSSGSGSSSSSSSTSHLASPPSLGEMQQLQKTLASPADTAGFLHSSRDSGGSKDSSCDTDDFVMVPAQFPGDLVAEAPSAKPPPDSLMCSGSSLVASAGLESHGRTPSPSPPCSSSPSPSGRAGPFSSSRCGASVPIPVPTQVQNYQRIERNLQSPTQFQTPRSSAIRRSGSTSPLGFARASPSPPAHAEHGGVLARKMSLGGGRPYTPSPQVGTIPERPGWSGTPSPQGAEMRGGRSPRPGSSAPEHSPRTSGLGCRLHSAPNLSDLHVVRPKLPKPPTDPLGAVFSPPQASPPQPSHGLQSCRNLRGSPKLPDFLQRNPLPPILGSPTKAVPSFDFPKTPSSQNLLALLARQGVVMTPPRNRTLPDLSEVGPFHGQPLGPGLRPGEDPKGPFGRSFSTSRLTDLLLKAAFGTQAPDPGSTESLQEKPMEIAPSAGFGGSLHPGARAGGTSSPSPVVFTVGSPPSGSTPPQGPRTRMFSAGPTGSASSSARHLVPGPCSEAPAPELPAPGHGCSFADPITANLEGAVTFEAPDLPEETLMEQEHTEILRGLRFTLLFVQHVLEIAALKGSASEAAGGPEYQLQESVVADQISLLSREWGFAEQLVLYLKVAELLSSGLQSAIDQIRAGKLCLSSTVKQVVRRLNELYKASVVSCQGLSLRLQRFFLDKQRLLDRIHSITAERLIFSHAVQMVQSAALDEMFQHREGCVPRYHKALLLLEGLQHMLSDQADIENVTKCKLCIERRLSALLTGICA
Experimental: as §1

p38a = p38a (Homo sapiens, UniProt Q16539); conditions: 100 nM, 2 hours
p38a, sequence (Q16539 whole entry): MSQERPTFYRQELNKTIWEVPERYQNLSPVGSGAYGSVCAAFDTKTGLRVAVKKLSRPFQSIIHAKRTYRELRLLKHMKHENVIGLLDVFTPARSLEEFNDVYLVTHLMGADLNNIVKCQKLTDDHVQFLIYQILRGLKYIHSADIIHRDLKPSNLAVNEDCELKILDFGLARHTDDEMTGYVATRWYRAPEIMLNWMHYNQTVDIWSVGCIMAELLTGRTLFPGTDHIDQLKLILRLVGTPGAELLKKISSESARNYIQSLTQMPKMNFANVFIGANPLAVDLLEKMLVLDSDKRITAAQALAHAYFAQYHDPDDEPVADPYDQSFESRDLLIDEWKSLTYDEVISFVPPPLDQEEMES
Experimental: as §1

[1] = Lys1, read-out: Inhibition vs DMSO

CN1CCN(Cc2ccc(Nc3ncc(Cl)c(Nc4ccccc4S(=O)(=O)N(C)C)n3)cc2)CC1 [TP-0903]
inhibition at 0.1 µM (CDK7): 86.1%
inhibition at 0.1 µM (CaMK2g): 25.8%
inhibition at 0.1 µM (ILK; [1]): 6.4%
inhibition at 0.1 µM (ILK; Protein Kinase Domain, read-out: Inhibition vs DMSO): -1.3%
inhibition at 0.1 µM (IRE1): -29.3%
Inhibition vs DMSO (JAK1 domain2; Activation Loop): -23.7%
Inhibition vs DMSO (JAK1 domain2; Lys1): -597.8%
inhibition at 0.1 µM (KSR1): -11%
inhibition at 0.1 µM (MAP2K5): -1.6%
inhibition at 0.1 µM (PAK2; [1]): -46.5%
inhibition at 0.1 µM (PAK2; Other, read-out: Inhibition vs DMSO): -26.6%
inhibition at 0.1 µM (PCTAIRE2): 20.4%
inhibition at 0.1 µM (PIK3CD): -4.6%
Inhibition vs DMSO (PKR; Activation Loop): -7.5%
Inhibition vs DMSO (PKR; Lys1): -21.9%
Inhibition vs DMSO (PKR; Lys2): -21.6%
inhibition at 0.1 µM (PRPK): 29.4%
inhibition at 0.1 µM (RIPK3): 6.4%
inhibition at 0.1 µM (SGK3): -9.6%
inhibition at 0.1 µM (TAO2): 10.8%
Inhibition vs DMSO (TYK2 domain2): -0.9%
Inhibition vs DMSO (ULK1): 45.8%
Inhibition vs DMSO (p38a; Lys2): -1.9%
Inhibition vs DMSO (p38a; Other): 17.3%
